PMC7457533, “Characterization of thrombin/factor Xa inhibitors in Rhizoma Chuanxiong through UPLC-MS-based multivariate statistical analysis” (Chinese Medicine, 2020)

Target: T1, thrombin (THR) (Homo sapiens, UniProt P00734)
T1 construct: gene F2
Assay: capillary electrophoresis immobilized enzyme microreactor, S-2238; percent inhibition at […]
Assay type: biochemical
Conditions: read-out: Inhibition percentage (%)

In the case of CCCCC1OC(=O)C2=C1CCC=C2 (centres unmarked) [a, Senkyunolide A], the inhibition at 500 µM is reported as 41.9 ± 1.84%.

Molecule CCC/C=C1\OC(=O)C2=C1CCC=C2 [d, Z-ligustilide] has an inhibition at 500 µM of 36.9 ± 2.37%.
